# pIC50: −log10 of the molar value. “And” between values parts separate entries of the source, which are not always exact repeats. Identical values can stand only once.
# Target: Replicase polyprotein 1ab (Severe acute respiratory syndrome coronavirus 2, UniProt P0DTD1)
# Assay: Functional biochemical assay to identify treatments for viral infectious disease that targets SARS-COV-2 nsp3 macrodomain, whereby the mechanism of action displaces an ADP-Ribose modified peptide from the binding site. Utilizing a time-resolved fluorescence method to measure binding by reading the emitted fluorescence intensity in two wavelengths.
SMILES,pIC50,IC50
CC(C)[C@@H](Nc1ncnc2[nH]c(C(=O)N[C@H]3CCN(C)C3)cc12)c1ccc2c(c1)S(=O)(=O)CCC2,7.27 and 6.97,
CCNC(=O)c1cc2c(N[C@@H](c3ccc4c(c3)S(=O)(=O)CCO4)C(C)C)ncnc2[nH]1,7.48 and 7.19 and 7.28 and 7.05 and 7.30 and 7.14,
Cc1nn(C)cc1-c1cc2c(N[C@@H](c3ccc4c(c3)S(=O)(=O)CCC4)C(C)C)ncnc2[nH]1,4.43 and 4.97,
CNC(=O)c1cccc(-c2cc3c(N[C@@H](c4ccc5c(c4)S(=O)(=O)CCC5)C(C)C)ncnc3[nH]2)c1,5.17,
CC(C)[C@H](Nc1ncnc2[nH]c(-c3cnn(CC(N)=O)c3)cc12)c1ccc2c(c1)S(=O)(=O)CCC2,,21 nM and 16 nM and 31 nM (2×) and 15 nM and 23 nM (2×) and 25 nM
CC(C)[C@@H](Nc1ncnc2[nH]c(-c3cnn(C)c3)cc12)c1ccc2c(c1)S(=O)(=O)NCC2,7.15 and 7.24,
CC(C)[C@H](Nc1ncnc2[nH]c(-c3cnn(C)c3C#N)cc12)c1ccc2c(c1)S(=O)(=O)CCC2,7.74 and 7.82 and 7.89,
CC(C)(C)[C@H](Nc1ncnc2[nH]c(-c3cnn(CC(N)=O)c3)cc12)c1ccc2c(c1)OCCO2,6.91,
CNCc1cc(-c2cc3c(N[C@H](c4ccc5c(c4)S(=O)(=O)CCC5)C(C)C)ncnc3[nH]2)co1,5.65 and 5.72 and 6.01,
CC(C)[C@H](Nc1ncnc2[nH]c(-c3cnn(C)c3C#N)cc12)c1ccc2c(n1)NC(=O)CO2,7.00 and 7.02,
CNCc1cc(-c2cc3c(N[C@@H](c4ccc5c(c4)S(=O)(=O)NCC5)C(C)C)ncnc3[nH]2)co1,,65 nM and 70 nM (2×) and 108 nM
CC(C)[C@@H](Nc1ncnc2[nH]ccc12)c1ccc2c(c1)S(=O)(=O)CCO2,6.74,
CC(C)[C@H](Nc1ncnc2[nH]c(-c3cnn(C)c3C#N)cc12)c1ccc2c(c1)NC(=O)CO2,6.75,
CCNC(=O)c1cc2c(N[C@@H](c3ccc4c(c3)S(=O)(=O)NCC4)C(C)C)ncnc2[nH]1,6.91 and 6.93 and 7.02 and 6.71,
CC(C)[C@H](Nc1ncnc2[nH]c(-c3cnn(C)c3)cc12)c1ccc2c(c1)S(=O)(=O)CCC2,5.04,
CC(C)[C@@H](Nc1ncnc2[nH]c(-c3ccc4nnn(C)c4c3)cc12)c1ccc2c(c1)S(=O)(=O)CCC2,7.00 and 7.07,
CC(C)[C@@H](Nc1ncnc2[nH]c(-c3ccc4cncn4c3)cc12)c1ccc2c(c1)S(=O)(=O)CCC2,6.91 and 7.02,
CC(C)[C@@H](Nc1ncnc2[nH]c(-c3cncc(S(C)(=O)=O)c3)cc12)c1ccc2c(c1)S(=O)(=O)CCC2,7.41 and 7.10 and 7.24 and 6.84,
CNC(=O)c1cccc(-c2cc3c(N[C@H](c4ccc5c(c4)S(=O)(=O)CCC5)C(C)C)ncnc3[nH]2)c1,7.85 and 7.59 and 8.00 and 7.70 and 7.66 and 7.57 and 7.54,
CC(C)[C@@H](Nc1ncnc2[nH]c(-c3cccc(-n4cnnn4)c3)cc12)c1ccc2c(c1)S(=O)(=O)CCC2,6.62,
CC(C)[C@@H](Nc1ncnc2[nH]c(-c3ccc(S(=O)(=O)NCCO)cc3)cc12)c1ccc2c(c1)S(=O)(=O)CCC2,7.00 and 7.05 and 6.81,

SMILES,pIC50,IC50
CC(C)[C@@H](Nc1c(N)cnc2[nH]ccc12)c1ccc2c(c1)S(=O)(=O)CCC2,< 4.00,
CNc1nccc(N[C@H](c2ccc3c(c2)S(=O)(=O)CCC3)C(C)C)n1,< 4.00,
CC(C)[C@H](Nc1ncnc2[nH]cnc12)c1ccc2c(c1)S(=O)(=O)CCC2,6.13,
CCNC(=O)c1cc2c(N[C@@H](c3ccc4ncn(C)c(=O)c4c3)C(C)C)ncnc2[nH]1,6.39 and 6.34,
CC(C)[C@H](Nc1ccnc2[nH]ccc12)c1ccc2c(c1)S(=O)(=O)CCC2,< 4.00,
CC(C)[C@@H](Nc1ncnc2[nH]c(-c3ccc4c(c3)C(C)(C)C(=O)N4)cc12)c1ccc2c(c1)S(=O)(=O)CCC2,6.48,
CC(C)[C@@H](Nc1ncnc2[nH]c(-c3ccc(S(N)(=O)=O)c4nsnc34)cc12)c1ccc2c(c1)S(=O)(=O)CCC2,6.62,
CC(C)[C@@H](Nc1ncnc2[nH]c(-c3cccc4c3NC(=O)C4)cc12)c1ccc2c(c1)S(=O)(=O)CCC2,6.44,
CCNC(=O)c1cc2c(N[C@@H](c3ccc4c(n3)NC(=O)CO4)C(C)C)ncnc2[nH]1,5.97 and 6.24,
CCNC(=O)c1cc2c(N[C@H](c3ccc4nc(NC(C)=O)sc4c3)C(C)C)ncnc2[nH]1,4.52,
CC(C)[C@H](Nc1ncnc2n[nH]cc12)c1ccc2c(c1)S(=O)(=O)CCC2,5.81 and 6.11,
CCNC(=O)c1cc2c(N[C@@H](c3nc4ccccc4o3)C(C)C)ncnc2[nH]1,4.69 and 4.75,
CC(C)[C@@H](Nc1ncnc2[nH]c(-c3cnc(N)nc3)cc12)c1ccc2c(c1)S(=O)(=O)CCC2,7.07 and 7.21 and 6.97,
CC(C)[C@@H](Nc1ncnc2[nH]c(-c3cncnc3)cc12)c1ccc2c(c1)S(=O)(=O)CCC2,6.32 and 6.51 and 6.27,
CCNC(=O)c1cc2c(N[C@H](c3ccccc3N(C)S(C)(=O)=O)C(C)C)ncnc2[nH]1,< 4.00,
CC(C)(C)[C@H](Nc1ncnc2[nH]c(-c3cnn(CC(N)=O)c3)cc12)c1ccc2c(n1)OCCO2,4.85 and 4.97,
CNC(=O)c1cc2c(N[C@H](c3ccc4c(c3)S(=O)(=O)CCC4)C(C)C)ncnc2[nH]1,5.75,
CCNC(=O)c1cc2c(N[C@@H](c3cc4c(cc3Cl)OCO4)C(C)C)ncnc2[nH]1,5.21 and 5.31,
CC(C)[C@@H](Nc1ncnc2[nH]c(-c3cnc(N4CC(O)C4)nc3)cc12)c1ccc2c(c1)S(=O)(=O)CCC2,7.03 and 7.17 and 6.94,
CNS(=O)(=O)c1cc2c(N[C@@H](c3ccc4c(c3)S(=O)(=O)CCC4)C(C)C)ncnc2[nH]1,5.93,
CC(C)[C@@H](Nc1ncnc2[nH]ccc12)c1ccc2c(n1)S(=O)(=O)CCC2,5.95 and 6.11,

SMILES,pIC50,IC50
CCNC(=O)c1cc2c(N[C@@H](CCc3cccc(NS(C)(=O)=O)c3)C(C)C)ncnc2[nH]1,< 4.00,
CC(C)[C@H](Nc1ncnc2[nH]c(-c3cnn(CC(N)=O)c3)cc12)c1ccc2c(n1)OCCO2,4.93,
CC(C)[C@@H](Nc1ncnc2[nH]c(C3=CCOC3)cc12)c1ccc2c(c1)S(=O)(=O)CCC2,7.09 and 6.94 and 6.61,
CC(C)[C@H](Nc1ncnc2[nH]c(C(=O)N[C@H]3CCN(C)C3)cc12)c1ccc2c(c1)S(=O)(=O)CCC2,5.50,
COC(=O)c1cc2c(N[C@@H](c3ccc4c(c3)CCN4)C(C)C)ncnc2[nH]1,4.54 and 4.42 and 4.55,
CC(=O)N1CCN(Cc2cccc(-c3cc4c(N[C@@H](c5ccc6c(c5)S(=O)(=O)CCC6)C(C)C)ncnc4[nH]3)c2)CC1,6.59 and 6.73 and 6.49,
CC(C)[C@H](Nc1ncnc2[nH]cc(C(=O)NC3CC3)c12)c1ccc2c(c1)S(=O)(=O)CCC2,5.41 and 5.19 and 5.37,
CC(C)[C@@H](Nc1ncnc2[nH]c(-c3ccc(S(C)(=O)=O)nc3)cc12)c1ccc2c(c1)S(=O)(=O)CCC2,7.31 and 7.27 and 7.03 and 7.22 and 7.16,
CC(C)[C@@H](Nc1ncnc2[nH]c(C(=O)NC3CCN(C)CC3)cc12)c1ccc2c(c1)S(=O)(=O)CCC2,6.68,
CCNC(=O)c1cc2c(N[C@@H](c3ccc4c(c3)S(=O)(=O)CCC4)C3CC3)ncnc2[nH]1,6.40 and 6.58,
CCNC(=O)c1cc2c(N[C@@H](c3ccc4c(c3)CCN4C(=O)C3CC3)C(C)C)ncnc2[nH]1,4.61,
CC(C)[C@@H](Nc1ncnc2[nH]c(-c3cc4c(cc3F)NC(=O)CC4)cc12)c1ccc2c(c1)S(=O)(=O)CCC2,6.53 and 6.72 and 6.46,
Cc1n[nH]c(C)c1-c1cc2c(N[C@@H](c3ccc4c(c3)S(=O)(=O)CCC4)C(C)C)ncnc2[nH]1,6.34 and 6.57 and 6.30,
CC(C)[C@@H](Nc1ncnc2[nH]c(-c3ccc(=O)n(C)c3)cc12)c1ccc2c(c1)S(=O)(=O)CCC2,7.30 and 7.34 and 7.40 and 7.32 and 7.11,
CC(C)[C@H](Nc1ncnc(N)c1Cl)c1ccc2c(c1)S(=O)(=O)CCC2,5.53 and 5.81,
CC(C)[C@@H](Nc1ncnc2[nH]c(-c3ccn(C)c(=O)c3)cc12)c1ccc2c(c1)S(=O)(=O)CCC2,7.13 and 7.20 and 6.95,
CCNC(=O)c1cc2c(N[C@@H](c3cccnc3OCC(F)(F)F)C(C)C)ncnc2[nH]1,< 4.00,
CC(C)[C@@H](Nc1ncnc2[nH]c(-c3cc(O)nc4ccccc34)cc12)c1ccc2c(c1)S(=O)(=O)CCC2,5.78,
CNC(=O)Cn1cc(-c2cc3c(N[C@H](c4ccc5c(c4)OCCO5)C(C)C)ncnc3[nH]2)cn1,6.67 and 6.65,
CCNC(=O)c1cc2c(NC3(c4ccc5c(c4)S(=O)(=O)CCC5)CCC3)ncnc2[nH]1,5.52,
CC(C)[C@H](Nc1ncnc2[nH]c(-c3cnn(CC(=O)N(C)C)c3)cc12)c1ccc2c(c1)S(=O)(=O)CCC2,5.26 and 5.37,

SMILES,pIC50,IC50
CC(C)[C@H](Nc1ncnc2[nH]c(C(=O)N[C@@H]3CCN(C)C3)cc12)c1ccc2c(c1)S(=O)(=O)CCC2,5.50 and 5.54 and 5.42 and 5.79,
CC(C)[C@@H](Nc1ncnc2[nH]c(-c3cnc4c(c3)nnn4C)cc12)c1ccc2c(c1)S(=O)(=O)CCC2,6.62 and 6.88 and 6.46,
CC(C)[C@@H](Nc1ncnc2[nH]c(C3=CCS(=O)(=O)C3)cc12)c1ccc2c(c1)S(=O)(=O)CCC2,6.97 and 6.77 and 6.93,
CC(C)[C@@H](Nc1ncnc2[nH]c(S(C)(=O)=O)cc12)c1ccc2c(c1)S(=O)(=O)CCC2,6.00,
Cn1ncc(-c2cc3c(N[C@H](c4ccc5c(n4)OCCO5)C(C)(C)C)ncnc3[nH]2)c1C#N,5.30 and 5.63 and 5.51 and 5.62 and 4.97,
CC(C)[C@@H](Nc1ncnc2[nH]c(-c3ccn4cnnc4c3)cc12)c1ccc2c(c1)S(=O)(=O)CCC2,7.03 and 7.14 and 6.90,
CC(C)[C@@H](Nc1ncnc2[nH]c(C(=O)NC3CN(C)C3)cc12)c1ccc2c(c1)S(=O)(=O)CCC2,6.72,
CC(C)[C@@H](Nc1ncnc2[nH]c(-c3cn[nH]c3)cc12)c1ccc2c(c1)S(=O)(=O)CCC2,7.20 and 7.28 and 7.07 and 7.24 and 7.22,
Cc1nnn(C)c1-c1cc2c(N[C@@H](c3ccc4c(c3)S(=O)(=O)CCC4)C(C)C)ncnc2[nH]1,6.38,
CC(C)[C@H](Nc1cccc2nc[nH]c(=O)c12)c1ccc2c(c1)S(=O)(=O)CCC2,< 4.00,
CCNC(=O)c1cc2c(N[C@@H](CC(=O)Nc3cnn(C(C)C)c3)C(C)C)ncnc2[nH]1,4.56 and 4.63,
CCNC(=O)c1cc2c(N[C@H](c3ccc4c(c3)S(=O)(=O)CCC4)C(C)C)ncnc2[nH]1,5.89,
CC(C)[C@@H](Nc1ncnc2[nH]ccc12)c1ccc2c(c1)SCCO2,5.73 and 5.71,
CC(C)[C@H](Nc1ncnc2[nH]c(-c3cnn(CC(N)=O)c3)cc12)c1ccc2c(c1)NC(=O)CO2,< 4.00,
CCNC(=O)c1cc2c(N[C@@H](c3cnc(NC(C)=O)s3)C(C)C)ncnc2[nH]1,5.36 and 5.27 and 5.38,
CC(C)[C@@H](Nc1ncnc2[nH]c(-c3ccnc(OCCN(C)C)c3)cc12)c1ccc2c(c1)S(=O)(=O)CCC2,6.94,
CNC(=O)c1cc2c(N[C@H](c3ccc4c(c3)NC(=O)CO4)C(C)C)ncnc2[nH]1,5.27 and 6.02 and 5.87 and 5.97,
CC(C)[C@@H](Nc1ncnc2[nH]ccc12)c1ccc2c(c1)[S+]([O-])CCO2 (stereo partly specified),6.22 and 6.20,
